Earlier results, collected in patent US20060246153A1, “Herbal compositions for the teatment and prevention of prostate disorders” (priority 2003, published 2006).

System: localised prostate adenocarcinoma
Settings: 28 mg a day in the diet for three weeks

CC(C)=CCC/C(C)=C/C=C/C(C)=C/C=C/C(C)=C/C=C/C=C(C)/C=C/C=C(C)/C=C/C=C(\C)CCC=C(C)C [lycopene]
oxidative damage to the DNA of the post-operative biopsy tissue: greatly reduced | plasma levels of PSA (prostate-specific antigen): reduced
